14 molecules from US8791132B2, “Compounds and methods for treatment of hypertension” (Medivation Technologies, Inc., priority 2011, dated 2014) can be followed below.

pKi: −log10 of the molar value. Where “and” joins values, the source holds several entries; their conditions need not be identical. Identical values can stand only once. Like-named read-outs stand apart in the source and are kept apart here.

Assay [1] addresses T1, human recombinant adrenergic α2B receptor (Homo sapiens, UniProt P18089).
T1 construct: expressed in transfected cells; host or cells: CHO-K1
T1 sequence (P18089 1-450): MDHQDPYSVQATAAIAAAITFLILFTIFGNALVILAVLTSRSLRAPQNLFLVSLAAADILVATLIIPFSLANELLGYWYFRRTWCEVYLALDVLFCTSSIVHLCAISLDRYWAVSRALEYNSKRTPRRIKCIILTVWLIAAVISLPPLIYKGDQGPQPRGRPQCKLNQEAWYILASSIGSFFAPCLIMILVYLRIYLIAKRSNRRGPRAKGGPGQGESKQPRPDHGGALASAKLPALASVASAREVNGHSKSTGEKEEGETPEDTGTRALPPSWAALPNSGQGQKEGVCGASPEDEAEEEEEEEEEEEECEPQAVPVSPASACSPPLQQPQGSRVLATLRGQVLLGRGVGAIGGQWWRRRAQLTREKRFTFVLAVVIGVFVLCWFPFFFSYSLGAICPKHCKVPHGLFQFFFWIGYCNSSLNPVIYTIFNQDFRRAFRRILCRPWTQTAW
Kind of assay: Radioligand binding, adrenergic α2B ([3H]Rauwolscine). The conditions noted are these: for pKi: read-out: Ki α2B. A digest of the protocol: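 Membranes from CHO-K1 cells expressing human recombinant α2B, in 50 mM Tris-HCl pH 7.4, 12.5 mM MgCl2, 1 mM EDTA, 0.2% BSA, incubated with compound and 2.5 nM [3H]Rauwolscine, 60 min, 25 °C.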

Assay [2] deals with T2, human recombinant adrenergic α2A receptor (Homo sapiens, UniProt P08913).
T2 construct: expressed in transfected cells; host or cells: insect Sf9 cells
T2 sequence (P08913 1-465): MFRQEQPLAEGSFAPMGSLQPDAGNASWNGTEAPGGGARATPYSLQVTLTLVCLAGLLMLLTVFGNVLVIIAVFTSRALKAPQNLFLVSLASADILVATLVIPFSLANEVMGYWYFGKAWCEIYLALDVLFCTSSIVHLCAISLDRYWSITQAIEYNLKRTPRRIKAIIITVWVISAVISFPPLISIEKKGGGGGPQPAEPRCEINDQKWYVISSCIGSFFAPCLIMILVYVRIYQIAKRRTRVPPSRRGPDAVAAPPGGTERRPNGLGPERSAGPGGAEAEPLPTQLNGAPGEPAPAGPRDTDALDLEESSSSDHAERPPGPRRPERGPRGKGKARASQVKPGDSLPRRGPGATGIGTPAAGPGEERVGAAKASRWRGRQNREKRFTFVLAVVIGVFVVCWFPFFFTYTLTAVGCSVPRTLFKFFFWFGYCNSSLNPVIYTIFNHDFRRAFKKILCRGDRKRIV
As to the kind of experiment: Radioligand binding, adrenergic α2A ([3H]MK-912). A digest of the protocol: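 Receptor expressed in insect Sf9 cells, assayed in 50 mM Tris-HCl pH 7.4 with 12.5 mM MgCl2 and 2 mM EDTA. Compounds incubated with 1 nM [3H]MK-912 for 60 min at 25 °C; nonspecific binding defined with 10 μM WB-4101. Filter-bound radioactivity counted; values are percent inhibition of specific binding.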

For assay [3], the target named is T3, rat adrenergic α1B receptor (Rattus norvegicus, UniProt P15823).
T3 construct: rat adrenergic α1B receptor obtained from Wistar Rat liver; from tissue; host or cells: Wistar rat liver
T3 sequence (P15823 1-515): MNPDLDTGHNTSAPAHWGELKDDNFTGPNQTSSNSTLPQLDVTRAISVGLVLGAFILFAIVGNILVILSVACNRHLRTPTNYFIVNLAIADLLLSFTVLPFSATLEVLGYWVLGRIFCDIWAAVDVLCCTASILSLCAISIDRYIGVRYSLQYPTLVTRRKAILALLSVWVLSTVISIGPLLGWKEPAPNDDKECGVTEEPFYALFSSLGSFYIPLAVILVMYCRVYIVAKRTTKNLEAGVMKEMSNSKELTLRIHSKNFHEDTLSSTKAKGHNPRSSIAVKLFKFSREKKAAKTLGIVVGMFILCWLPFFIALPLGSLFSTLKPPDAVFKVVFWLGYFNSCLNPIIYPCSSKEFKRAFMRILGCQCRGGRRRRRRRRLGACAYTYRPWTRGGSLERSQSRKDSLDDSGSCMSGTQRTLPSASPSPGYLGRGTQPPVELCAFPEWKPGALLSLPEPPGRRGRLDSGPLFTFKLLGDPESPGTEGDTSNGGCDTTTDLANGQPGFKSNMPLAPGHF
As to the kind of experiment: Radioligand binding, adrenergic α1B ([3H]Prazosin). The essentials:
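Filter binding with Wistar rat liver α1B preparation: test compound plus 0.25 nM [3H]prazosin, 1 h at 25° C in modified Tris-HCl buffer pH 7.4.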

The target of assay [4] is T4, human recombinant adrenergic α1D receptor (Homo sapiens, UniProt P25100).
T4 construct: expressed in transfected cells; host or cells: HEK-293
T4 sequence (P25100 1-572): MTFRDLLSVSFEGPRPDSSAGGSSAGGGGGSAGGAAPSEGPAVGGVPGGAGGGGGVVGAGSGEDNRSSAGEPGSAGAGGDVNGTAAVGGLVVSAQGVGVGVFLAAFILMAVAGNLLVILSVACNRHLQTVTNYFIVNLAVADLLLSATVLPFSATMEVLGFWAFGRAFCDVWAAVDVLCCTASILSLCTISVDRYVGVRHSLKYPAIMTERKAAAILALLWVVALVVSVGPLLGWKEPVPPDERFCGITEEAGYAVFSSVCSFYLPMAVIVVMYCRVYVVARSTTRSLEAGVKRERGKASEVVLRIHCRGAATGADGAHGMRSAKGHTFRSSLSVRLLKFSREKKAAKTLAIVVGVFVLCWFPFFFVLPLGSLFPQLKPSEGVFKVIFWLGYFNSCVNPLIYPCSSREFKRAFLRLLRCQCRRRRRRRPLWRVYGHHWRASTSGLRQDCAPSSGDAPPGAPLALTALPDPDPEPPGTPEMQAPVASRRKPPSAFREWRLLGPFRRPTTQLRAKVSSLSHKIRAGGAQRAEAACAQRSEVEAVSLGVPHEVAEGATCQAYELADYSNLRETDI
Kind of assay: Radioligand binding, adrenergic α1D ([3H]Prazosin). Here is the method: Compounds were incubated with 0.6 nM [3H]Prazosin for 60 min at 25° C. Non-specific binding was estimated in the presence of 10 μM phentolamine. Receptor proteins were filtered and washed, the filters were then counted to determine [3H]Prazosin specifically bound. […] Biochemical assay results are presented as the percent inhibition of specific binding in Table B1.

Setting [5] is: read-out: Percentage inhibition of ligand binding, Adrenergic α2A (0.1 μM), compound at 0.1 μM, [3H]MK-912, repeat datapoints each shown.
Setting [6] is: compound at 0.1 μM, [3H]Rauwolscine, repeat assays, each datapoint shown, read-out: Percentage inhibition of ligand binding, Adrenergic α2B.
Where [7] appears, read: compound at 0.1 μM, [3H]MK-912, repeat assays, each datapoint shown, read-out: Percentage inhibition of ligand binding, Adrenergic α2A.
[8] abbreviates: compound at 0.1 μM, [3H]Prazosin, repeat assays, each datapoint shown, read-out: Percentage inhibition of ligand binding, Adrenergic α1B.
Where [9] appears, read: compound at 0.1 μM, [3H]Prazosin, repeat assays, each datapoint shown, read-out: Percentage inhibition of ligand binding, Adrenergic α1D.
The mark [10] stands for this setting: 0.1 μM compound, read-out: Percentage inhibition of ligand binding, Adrenergic α2B.
[11] abbreviates: 0.1 μM compound, read-out: Percentage inhibition of ligand binding, Adrenergic α2A.
Setting [12] is: 0.1 μM compound, read-out: Percentage inhibition of ligand binding, Adrenergic α1B.
[13] abbreviates: 0.1 μM compound, read-out: Percentage inhibition of ligand binding, Adrenergic α1D.
Where [14] appears, read: read-out: Percentage inhibition of ligand binding, Adrenergic α2B (0.1 μM), compound at 0.1 μM, [3H]Rauwolscine, repeat datapoints each shown.
The mark [15] stands for this setting: read-out: Percentage inhibition of ligand binding, Adrenergic α1B (0.1 μM), compound at 0.1 μM, [3H]Prazosin, repeat datapoints each shown.
[16] abbreviates: read-out: Percentage inhibition of ligand binding, Adrenergic α1D (0.1 μM), compound at 0.1 μM, [3H]Prazosin, repeat datapoints each shown.

In the case of `CN1CCc2c(c3cc(Cl)ccc3n2CCc2ccc(Cl)cc2)C1` [compound 213], the “Percentage inhibition of ligand binding, Adrenergic α2B (0.1 μM)” value in assay [1] (compound at 0.1 μM, [3H]Rauwolscine, repeat datapoints each shown, 0.1 µM) was 68% and 97%. Also, the pKi in assay [1] is 7.58. Besides, the inhibition at 0.03 µM in assay [1] (read-out: Percentage inhibition of ligand binding, Adrenergic α2B (0.03 μM), compound at 0.03 μM, [3H]Rauwolscine, repeat datapoints each shown) came to 26%; in assay [3] (read-out: Percentage inhibition of ligand binding, Adrenergic α1B (0.03 μM), compound at 0.03 μM, [3H]Prazosin, repeat datapoints each shown), 53%; in assay [4] (read-out: Percentage inhibition of ligand binding, Adrenergic α1D (0.03 μM), compound at 0.03 μM, [3H]Prazosin, repeat datapoints each shown), 53%. Moreover, the inhibition at 0.1 µM in assay [2] (setting [5]) was 98%.

Take `CN1CCc2c(c3cc(Cl)ccc3n2CCC(=O)OC2CCCC2)C1` [compound 88]: the inhibition at 0.1 µM in assay [1] (setting [6]) amounted to 90%; in assay [2] (setting [7]), 2%; in assay [3] (setting [8]), 10%; in assay [4] (setting [9]), 36%.

As for `Cc1ccc2c(c1)c1c(n2C2=C(c3ccc(C)nc3)CCC2)CCN(C)C1` [II-82, 2,8-dimethyl-5-(2-(6-methylpyridin-3-yl)cyclopent-1-enyl)-2,3,4,5-tetrahydro-1H-pyrido[4,3-b]indole], the inhibition at 0.03 µM in assay [1] (0.03 μM compound, read-out: Percentage inhibition of ligand binding, Adrenergic α2B) stood at 35%. For the same molecule, the “Percentage inhibition of ligand binding, Adrenergic α2B” value in assay [1] (0.1 μM compound, 0.1 µM) is given as 53%. The inhibition at 0.1 µM in assay [1] (setting [10]) turned out to be 48%; in assay [2] (setting [11]), 45%; in assay [3] (setting [12]), 13%; in assay [4] (setting [13]), 23%. The negative-log Ki (pKi) in assay [1] is 7.57.

With `Cc1ccc2c(c1)c1c(n2CCc2ccccn2)CCN(C)C1` [compound 84], the inhibition at 0.1 µM in assay [1] (setting [6]) worked out at 84%; in assay [2] (setting [7]), 27%; in assay [3] (setting [8]), 69%; in assay [4] (setting [9]), 36%.

With `C/C(=C\n1c2c(c3cc(C)ccc31)CN(C)CC2)c1cccc(F)c1` [compound 237], the inhibition at 0.1 µM worked out at 99% in assay [1] (setting [14]), 98% in assay [2] (setting [5]), 80% in assay [3] (setting [15]) and 52% in assay [4] (setting [16]).

In the case of `C/C(=C/n1c2c(c3cc(C)ccc31)CN(C)CC2)c1cccc2ccccc12` [compound 286], the inhibition at 0.1 µM came out at 60% in assay [1] (setting [10]), 80% in assay [2] (setting [11]), 26% in assay [3] (setting [12]) and 19% in assay [4] (setting [13]).

Consider `Cc1cc(Br)c2c(c1)c1c(n2CCc2ccc(C)nc2)CCN(C)C1` [II-39], for which the inhibition at 0.1 µM in assay [1] (setting [10]) is -14%; in assay [2] (setting [11]), 27%; in assay [3] (setting [12]), 16%; in assay [4] (setting [13]) it was 13%.

Regarding `CN1CCc2c(n(CC(C)(O)c3ccc(F)cc3)c3ccc(Cl)cc23)CC1` (stereo not shown) [compound 221], the inhibition at 0.1 µM in assay [1] (setting [14]) was 80%; in assay [2] (setting [5]), 56%; in assay [3] (setting [15]), 65%; in assay [4] (setting [16]) it was 16%.

As for `C=C(Cn1c2c(c3cc(C)ccc31)CN(C)CC2)c1ccncc1` [compound 121], the inhibition at 0.1 µM came to 88% in assay [1] (setting [14]), 16% in assay [2] (setting [5]), 6% in assay [3] (setting [15]) and 44% in assay [4] (setting [16]).

Consider `C/C(=C\n1c2c(c3cc(C)ccc31)CN(C)CC2)c1ccc2c(ccn2C)c1` [compound 283], for which the inhibition at 0.1 µM in assay [1] (setting [10]) was found to be 89%; in assay [2] (setting [11]) it was 90%; in assay [3] (setting [12]), 63%; in assay [4] (setting [13]) it was 46%.

As to `Cc1ccc2c(c1)c1c(n2/C=C/c2cccc3cnccc23)CCN(C)C1` [compound 316, 5-(2-isoquinolin-5-yl-vinyl)-2,8-dimethyl-2,3,4,5-tetrahydro-1H-pyrido[4,3-b]indole], the inhibition at 0.1 µM was found to be 45% in assay [1] (setting [10]), 90% in assay [2] (setting [11]), 93% in assay [3] (setting [12]) and 81% in assay [4] (setting [13]).

For the molecule `Cc1ccc2c(c1)c1c(n2C#Cc2ccc(S(N)(=O)=O)cc2)CN(C)CC1` [compound 333, 4-(2,6-dimethyl-1,2,3,4-tetrahydro-β-carbolin-9-ylethynyl)-benzenesulfonamide], the inhibition at 0.1 µM stood at 88% in assay [1] (setting [10]), 52% in assay [2] (setting [11]), 65% in assay [3] (setting [12]) and 16% in assay [4] (setting [13]).

As for `COc1ccc(/C(C)=C/n2c3c(c4cc(Cl)ccc42)CCN(C)CC3)cc1` [compound 246], the inhibition at 0.1 µM in assay [1] (setting [10]) worked out at 101%; in assay [2] (setting [11]), 86%; in assay [3] (setting [12]), 82%; in assay [4] (setting [13]), 68%.

As to `Cc1ccc(CCn2c3c(c4ccc(C(F)(F)F)cc42)CN(C)CC3)cn1` [compound 119], the inhibition at 0.1 µM in assay [1] (setting [14]) was 60%; in assay [2] (setting [5]) it was 14%; in assay [3] (setting [15]), 14%; in assay [4] (setting [16]) it was -6%.

What is called pKi is −log10 of the Ki, conventionally taken in molar units. Broadly, the inhibition is the drop in the measured response relative to a control, in per cent.
